Results on two compounds are retold here after patent US11221329B2, “Treatment of neurological and neurodevelopmental diseases and disorders associated with aberrant ion channel expression and activity” (LIEBER INSTITUTE FOR BRAIN DEVELOPMENT, priority 2015, dated 2022).

“Also recorded” adds a separate entry of the source.

The subject of one assay is crTCF4 cells. The assay is described as follows: Whole-cell current-clamp AP spiking in crTCF4 (CRISPR-Cas9 TCF4 mutated) mPFC neurons. In kind it is cell-based, rat. Here is the method:
(§1) Pregnant Wistar rats were obtained from Charles River Laboratories, Inc., maintained by SoBran on a 12-hour light cycle and fed ad libitum. In utero electroporation was performed as previously described (Chen et al., 2014; Maher and Loturco, 2012a). Electroporation was performed on embryonic day 16 (E16) and gestation age was confirmed during surgery. All plasmids were used at a final concentration of 1.5 μg/μl, and the mPFC was targeted for transfection. Pregnant dams were returned to the same housing conditions after recovery from surgery, and after litters were born, transfected rats were used for experiments at days P18-24.
(§2) Acute brain slices were obtained from rats and mice as described previously (Maher and Loturco, 2012b). […]
(§3) For all experiments, artificial cerebrospinal fluid (ACSF) was oxygenated (95% O2 and 5% CO2) and contained in (in mM): 125 NaCl, 25 NaHCO3, 1.25 NaH2PO4, 3 KCl, 25 dextrose, 1 MgCl2, and 2 CaCl2, pH 7.3. […] Current signals were recorded with either a Multiclamp 700A (Molecular Devices) or with an Axopatch 200B amplifier (Molecular Devices) and were filtered at 2 kHz using a built-in Bessel filter and digitized at 10 kHz.

The test system of a further assay is crEmpty cells. Put plainly: Whole-cell current-clamp AP spiking in crEmpty (CRISPR control) mPFC neurons. It counts as cell-based, rat. Here is the method: as §1, §2, §3
Assay [1] relates to prefrontal neurons from wildtype littermates. Put plainly: Whole-cell current-clamp AP output in prefrontal neurons from wildtype littermates. In kind it is cell-based, mouse. Here is the method:
(§4) In the mouse model used for Pitt-Hopkins syndrome (Sweatt, 2013) mice are heterozygous for a deletion of the DNA-binding domain of the Transcription Factor 4 (B6; 129-TCF4tm1Zhu/J; stock number 013598, Jackson Laboratory, Bar Harbor, Me.) (Zhuang et al., 1996). Control mouse experiments were conducted with wild-type littermates. Mice were maintained by SoBran on a 12-hour light cycle and fed ad libitum.
as §2
(§5) For all experiments, artificial cerebrospinal fluid (ACSF) was oxygenated (95% O2 and 5% CO2) and contained in (in mM): 125 NaCl, 25 NaHCO3, 1.25 NaH2PO4, 3 KCl, 25 dextrose, 1 MgCl2, and 2 CaCl2, pH 7.3. […] Current signals were recorded with either a Multiclamp 700A (Molecular Devices) or with an Axopatch 200B amplifier (Molecular Devices) and were filtered at 2 kHz using a built-in Bessel filter and digitized at 10 kHz. […]
(§6) Axograph was used on a Macintosh computer for analysis. […] Each current pulse was measured in triplicate, and the number of resulting APs was averaged. For analysis of fAHP amplitude, the second and third current evoked spikes within the 600 ms pulse were measured. The fAHP potential was measured by subtracting the voltage at the peak of the fAHP from the threshold potential for spike initiation (slope of AP exceeds 50 mV/ms). […]

For another assay, the system named is TCF4+/tr cells. Put plainly: Whole-cell current-clamp AP spiking in mPFC layer 2/3 neurons of the PTHS mouse model. It counts as cell-based. The procedure:
as §4, §2, §5, §6

A further assay relates to shCon cells. Put plainly: Whole-cell current-clamp recordings (AP spiking, mAHP/sAHP) in shCon (control shRNA) mPFC layer 2/3 pyramidal neurons, acute brain slices. It counts as cell-based, rat. Here is the method:
as §1
(§7) Acute brain slices were obtained from rats and mice as described previously (Maher and Loturco, 2012b). Briefly, P18-24 male and female animals were deeply anesthetized with isoflurane and transcardially perfused with ice-cold oxygenated (95% O2 and 5% CO2) dissecting buffer containing (in mM): 83 NaCl, 2.5 KCl, 1 NaH2PO4, 26.2 NaHCO3, 22 glucose, 72 sucrose, 0.5 CaCl2, and 3.3 MgCl2. Animals were humanly sacrificed and decapitated and the brains were rapidly removed and immersed in ice-cold oxygenated dissection buffer. Coronal slices (300 μm) were cut using a vibratome (Microm HM650V), incubated in dissection buffer for 30-45 minutes at 34° C., and then stored at room temperature. Slices were visualized using IR differential interference microscopy (DIC) (Olympus BX51WI) and a CCD camera (QICAM, QImaging). Individual layer 2/3 pyramidal cells expressing EGFP in rat brain slices were visualized with epifluorescent illumination and a 43× Olympus LUMPlanFLN (0.8 numerical aperture) objective.
(§8) For all experiments, artificial cerebrospinal fluid (ACSF) was oxygenated (95% O2 and 5% CO2) and contained in (in mM): 125 NaCl, 25 NaHCO3, 1.25 NaH2PO4, 3 KCl, 25 dextrose, 1 MgCl2, and 2 CaCl2, pH 7.3. Patch pipettes were fabricated from borosilicate glass (N51A, King Precision Glass, Inc.) to a resistance of 2-5 MΩ. For current- and voltage-clamp measurements, pipettes were filled with (in mM): 125 potassium gluconate, 10 HEPES, 4 Mg-ATP, 0.3 Na-GTP, 0.1 EGTA, 10 phosophocreatine, 0.05% biocytin, adjusted to pH 7.3 with KOH. For all experiments GABAa receptors were blocked with SR-95531 (Gabazine, 5 μM, Ascent Scientific). For AHP current experiments, synaptic currents were blocked with DL-2-amino-5-phosphopentanoic acid (D,L-AP5, 100 μM, Ascent Scientific), 2,3, dioxo-6-nitro-1,2,3,4, tetrahydrobenzo-quinoxaline-7-sulfonamide (NBQX, 10 μM) and SR-95531 (Gabazine, 5 μM, Ascent Scientific). Ca2+-activated currents were blocked with Tetraethylammonium chloride (TEA, 1 mM, Abcam), apamin (100 nM, Abcam), and carbachol (10 μM, Abcam). Current signals were recorded with either a Multiclamp 700A (Molecular Devices) or with an Axopatch 200B amplifier (Molecular Devices) and were filtered at 2 kHz using a built-in Bessel filter and digitized at 10 kHz. Voltage signals were filtered at 2 kHz and digitized at 10 kHz. Data were acquired using Axograph on a Dell PC. Data acquisition was terminated when series resistance was >15 MΩ. For voltage clamp recordings, pyramidal cells were held at −60 mV. No holding current was used for current-clamp recordings.
(§9) Axograph was used on a Macintosh computer for analysis. To measure spike frequency, EGFP-positive layer 2/3 neurons of the mPFC were injected with a 600 ms depolarizing current pulses ranging from 50 to 500 pA at 50 pA increments with an 10 s inter-trial interval. Each current pulse was measured in triplicate, and the number of resulting APs was averaged. For analysis of fAHP amplitude, the second and third current evoked spikes within the 600 ms pulse were measured. The fAHP potential was measured by subtracting the voltage at the peak of the fAHP from the threshold potential for spike initiation (slope of AP exceeds 50 mV/ms). The mAHP potential was measured at the peak of the AHP that followed the 600 ms current pulse. […]

Another assay relates to shTCF4 cells. The assay is described as follows: Whole-cell current-clamp recordings (AP spiking, mAHP/sAHP) in shTCF4 (TCF4 knockdown) mPFC layer 2/3 pyramidal neurons, acute brain slices. In kind it is cell-based, rat. Conditions: shTCF4 cells. Here is the method:
as §1, §7, §8, §9

Another assay concerns the target KCNQ1 (Homo sapiens, UniProt P51787). Conditions: KCNQ subtype-selective blocker; Soh and Tzingounis, 2010; cited from earlier work.
The next assay concerns the target KCNQ2 (Homo sapiens, UniProt O43526). Conditions: KCNQ subtype-selective blocker; Soh and Tzingounis, 2010; cited from earlier work.

Regarding `COc1cc(NC(=O)c2ccc(-c3ccc(Cl)cc3)o2)cc(OC)c1` [A-803467, 5-(4-Chlorophenyl)-N-(3,5-dimethoxyphenyl)-2-furancarboxamide], the “effect on the frequency of APs” value is given as “effective at increasing firing frequency; also recorded: significantly increased firing frequency” in the assay with crTCF4 cells (A-803467, significant for current pulses 400-500 pA, N=8, p=0.039) and “effective at rescuing AP output; also recorded: significantly increased firing frequency” in the assay on TCF4+/tr cells (A-803467, significant for current pulses 250-350 pA, N=8). For the same compound, the “effect on AP frequency” value in the assay with crEmpty cells (A-803467, p=0.15) is on record as “had no effect on firing frequency; also recorded: No effect on AP frequency”. Moreover, the “effect on action potential output” value in assay [1] (A-803467, p=0.06, N=5) was “has no effect on action potential output”. Further, in the assay with shCon cells (A-803467, N=7, p=0.14), the “effect on firing frequency” value is listed as “had no effect on firing frequency”. Moreover, in the assay with shTCF4 cells (A-803467 200 nM bath application, significant for current pulses 350-500 pA, N=11, p<0.05), the “effect on the frequency of APs generated in response to increasing current injections” value is given as “effective at increasing firing frequency; also recorded: significantly increased firing”.

In the case of `c1ccc(C(NCc2cccnc2)(c2ccccc2)c2ccccc2)cc1` [UCL2077, N-Trityl-3-pyridinemethanamine], the “effect on the frequency of APs” value in the assay with crTCF4 cells (UCL2077, significant for current pulses 400-500 pA, N=7, p=0.045) is reported as “significantly increased firing frequency”. Further, the “effect on AP frequency” value in the assay with crEmpty cells (UCL2077, p=0.99) is recorded as “No effect on AP frequency”. In assay [1] (UCL2077, p=0.58, N=11), the “effect on action potential output” value is on record as “has no effect on action potential output”. The “effect on the frequency of AP spiking” value in the assay on TCF4+/tr cells (UCL2077, N=8) is “had no effect; also recorded: has no effect on the frequency of AP spiking”. At KCNQ1, the “inhibition of KCNQ1” value was “strongly inhibits”. Besides, in the assay with shCon cells (UCL2077, N=8, p=0.35), the “effect on the frequency of APs (spiking)” value is recorded as “neither UCL2077 (p=0.35) nor JNJ303 (p=0.11) had an effect on spiking”. Also, the “amplitude of the sAHP after application” value is listed as −2.69±0.48 mV in the assay with shCon cells (UCL2077, before −2.60±0.42 mV, N=9, not significant) and −2.53±0.38 mV in the assay with shTCF4 cells (UCL2077, before −2.88±0.42 mV, N=19, p<0.05). For the same compound, the “amplitude of the mAHP after application” value in the assay with shCon cells (UCL2077, before −3.78±0.66 mV, N=9, not significant) was −4.01±0.66 mV; in the assay with shTCF4 cells (UCL2077, before −4.43±0.55 mV, N=19, p=0.003), −3.736±0.49 mV. Besides, the “inhibition of KCNQ2” value on KCNQ2 is listed as “strongly inhibits”. Further, in the assay with shTCF4 cells (UCL2077 10 μM, before vs after, within neuron, significant for current pulses 250-500 pA, N=17, p=0.0002), the “effect on the frequency of APs generated in response to current injections” value is given as “effective at increasing the spiking frequency; also recorded: significantly increased firing frequency”.
